Measurements published in article PMC6100250, “Efficient Intracellular Delivery of Cell-Impermeable Cargo Molecules by Peptides Containing Tryptophan and Histidine” (Molecules : A Journal of Synthetic Chemistry and Natural …, 2018).
Non-standard residues stand in square brackets, D forms with d. Residues, ends and D or L forms follow the SMILES beside them. *: point of attachment. 5FAM = O=C1OC2(c3ccc(O)cc3Oc3cc(O)ccc32)c2ccc(C(=O)*)cc21; pY = N[C@@H](Cc1ccc(OP(=O)(O)O)cc1)C(=O)O

Assays:
SK-OV-3 cells [1] = test: Live cell fluorescence microscopy of F’-GpYEEI uptake; assay type: cell-based, human; conditions: F’-GpYEEI 5 µM alone, no carrier peptide, 3 h, FITC channel
Protocol: Fluorescence microscopy was used to confirm the intracellular uptake of F’-GpYEEI in the presence of cyclic [WH]5. The fluorescence intensity of F’-GpYEEI (5 µM) was visualized in a physical mixture with cyclic [WH]5 (50 µM) compared to that of F’-GpYEEI alone in SK-OV-3 cells. […] F’-GpYEEI alone was used as a control in this assay. Live cell imaging was carried using glass-bottom plates.
SK-OV-3 cells were grown with antibiotic-free DMEM 24 h prior to the experiment in a glass bottom petri-dish (60 mm × 15 mm) of 5000 cells per mL of media. The F’-GpYEEI was incubated with cyclic [WH]5 for 30 min at room temperature. Then, the cells were treated with a mixture of F’-GpYEEI (5 μM) and cyclic [WH]5 (50 μM) in Opti-MEM for 3 h at 37 °C. After 3 h, the medium containing the treatments was removed, and PBS was added to cells. The cells were washed with PBS for two times. Images were acquired with BZ-X710 fluorescence microscope (Keyence, Osaka, Japan) at 100× magnification for brightfield and FITC channels. Images were merged and processed using Image J software to visualize the fluorescence uptake by cells.

CCRF-CEM cells = test: MTS cell viability (cytotoxicity) assay; conditions: peptide 10, 50 and 100 µM (up to 100 µM), 3 h incubation, 37 °C, read at 490 nm, triplicate
Protocol: (§1) To determine concentration of peptide to be used in in vitro assays, the cytotoxicity of peptides was evaluated in two cell lines, human ovarian (SK-OV-3) and leukemia (CCRF-CEM) cancer cells.
(§2) Human leukemia CCRF-CEM (ATCC # CCL-119) and ovarian carcinoma SK-OV-3 (ATCC # HTB-77) cell lines were purchased from the American Type Culture Collection. Cells were grown on 75 cm^2 cell culture flasks. The Roswell Park Memorial Institute (RPMI)-1640 medium was used for leukemia cells and McCoy’s 5A medium was used for SK-OV-3 cells. The medium was supplemented with 10% fetal bovine serum (FBS), 1% penicillin−streptomycin solution (10,000 units of penicillin, and 10 mg of streptomycin in 0.9% NaCl) in a humidified atmosphere of 5% CO2 at 37 °C. All bioassays were performed in triplicate.
(§3) The cytotoxicity assay was performed via an MTS proliferation assay in CCRF-CEM and SK-OV-3 cells. CCRF-CEM (40,000 cells) and SK-OV-3 (5000 cells) were incubated with 100 µL of complete media. The cells were seeded overnight in 96 well plates. […] The fluorescence intensity of the formazan product was measured at 490 nm using a Spectra Max M2 microplate spectrophotometer. The percentage of cell survival was calculated as [(OD value of cells treated with the test mixture of compounds) − (OD value of culture medium)]/[(OD value of control cells) − (OD value of culture medium)] × 100%.

SK-OV-3 cells [2] = test: MTS cell viability (cytotoxicity) assay; conditions: peptide 10, 50 and 100 µM (up to 100 µM), 3 h incubation, 37 °C, read at 490 nm, triplicate
Protocol: as §1, §2, §3

CC[C@H](C)[C@H](NC(=O)[C@H](CCC(=O)O)NC(=O)[C@H](CCC(=O)O)NC(=O)[C@H](Cc1ccc(OP(=O)(O)O)cc1)NC(=O)CNC(=O)c1ccc2c(c1)C(=O)OC21c2ccc(O)cc2Oc2cc(O)ccc21)C(=O)O [F’-GpYEEI] (5FAM-G[pY]EEI-OH)
cellular uptake of F’-GpYEEI alone (fluorescence microscopy) (SK-OV-3 cells [1]): No green fluorescence was observed

O=C1N[C@@H](Cc2c[nH]c3ccccc23)C(=O)N[C@@H](Cc2c[nH]cn2)C(=O)N[C@@H](Cc2c[nH]c3ccccc23)C(=O)N[C@@H](Cc2c[nH]cn2)C(=O)N[C@@H](Cc2c[nH]c3ccccc23)C(=O)N[C@@H](Cc2c[nH]cn2)C(=O)N[C@@H](Cc2c[nH]c3ccccc23)C(=O)N[C@@H](Cc2c[nH]cn2)C(=O)N[C@@H](Cc2c[nH]c3ccccc23)C(=O)N[C@H]1Cc1c[nH]cn1 [cyclic [WH]5] (cyclo(HWHWHWHWHW))
cytotoxicity (cell survival, MTS) (CCRF-CEM cells): did not show significant toxicity
cytotoxicity (cell survival, MTS) (SK-OV-3 cells [2]): did not show significant toxicity
